The text below walks through data of US20120095025A1, “SUBSTITUTED [1,2,4]TRIAZOLO[1,5-a]PYRIMIDINES AND THEIR USE AS POTASSIUM CHANNEL MODULATORS” (NEUROSEARCH A/S, priority 2009, published 2012).

The term Kd denotes the constant that tells how readily two partners part at equilibrium. A lower Kd goes with a tighter complex.

SMILES strings stand for the structures. Where only a bound is given, the exact number is not on record here.

In the test the target is T1, hSK1 channels (Homo sapiens, UniProt Q92952).
T1 construct: expressed in transfected cells; host or cells: HEK293
Description: Whole-cell patch-clamp recording of SK channel current in HEK293 cells expressing hSK1. The format is cell-based. Conditions: concentration required for decreasing the baseline current to 50% of the initial current. As to the method: The ionic current through small-conductance Ca^2+-activated K^+ channels (SK channels, subtype 1) is recorded using the whole-cell configuration of the patch-clamp technique in a classic patch-clamp set-up using HEK293 tissue culture cells expressing hSK1 channels as described in e.g. WO 2006/100212.
For inhibitors a Kd value, defined as the concentration required for decreasing the baseline current to 50% of the initial current, was estimated.
For orientation: In patch-clamp work, channel activity is measured electrically.
Consider `CON=CNc1nc2nccc(C(C)Oc3ccc(C(C)(C)C)cc3C)n2n1` (centres unmarked) [Example 7, N-{7-[1-(4-tert-Butyl-2-methylphenoxy)ethyl]-[1,2,4]triazolo[1,5-a]pyrimidin-2-yl}-N′-methoxy-formamidine], for which the Kd was under 100 nM.

In turn, `CON=CNc1nc2nccc(C(C)Oc3ccc(C(C)(C)C)cc3)n2n1` (centres unmarked) [Example A, N-{7-[1-(4-tert-Butylphenoxy)ethyl]-[1,2,4]triazolo[1,5-a]pyrimidin-2-yl}-N′-methoxy-formamidine] showed a Kd of under 100 nM.

`CON=CNc1nc2nccc(C(C)Oc3ccc(C4CCCC4)cc3)n2n1` (centres unmarked) [Example 5, N-{7-[1-(4-cyclopentyl-phenoxy)ethyl]-[1,2,4]triazolo[1,5-a]pyrimidin-2-yl}-N′-methoxy-formamidine] showed a Kd of over 3000 nM.

`CC(Oc1ccc(C(C)(C)C)cc1)c1ccnc2nc(NC=NO)nn12` (centres unmarked) [Example 1, N-{7-[1-(4-tert-Butylphenoxy)ethyl]-[1,2,4]triazolo[1,5-a]pyrimidin-2-yl}-N′-hydroxy-formamidine]: the Kd fell in the range of 100 to 1000 nM.

`CON=CNc1nc2nccc(C(C)Oc3ccc(C(C)C)cc3)n2n1` (centres unmarked) [Example 6, N-{7-[1-(4-Isopropylphenoxy)ethyl]-[1,2,4]triazolo[1,5-a]pyrimidin-2-yl}-N′-methoxy-formamidine] registered an equilibrium dissociation constant (Kd) of over 3000 nM.

As to `CCC(Oc1ccc(C(C)(C)C)cc1)c1ccnc2nc(NC=NOC)nn12` (centres unmarked) [Example 8, N-{7-[1-(4-tert-Butylphenoxy)propyl]-[1,2,4]triazolo[1,5-a]pyrimidin-2-yl}-N′-methoxy-formamidine], the Kd is under 100 nM.

With `CON=CNc1nc2nccc(C(C)Oc3ccc(OC(C)(C)C)cc3)n2n1` (centres unmarked) [Example 9, N-{7-[1-(4-tert-Butoxy-phenoxy)ethyl]-[1,2,4]triazolo[1,5-a]pyrimidin-2-yl}-N′-methoxy-formamidine], the equilibrium dissociation constant (Kd) is under 100 nM.

As to `CON=CNc1nc2nccc(C(C)(C)Oc3ccc(C(C)(C)C)cc3)n2n1` [Example 10, N-{7-[1-(4-tert-Butylphenoxy)-1-methyl-ethyl]-[1,2,4]triazolo[1,5-a]pyrimidin-2-yl}-N′-methoxy-formamidine], the dissociation constant (Kd) lay within 100 to 1000 nM.

`CC(C)ON=CNc1nc2nccc(C(C)Oc3ccc(C(C)(C)C)cc3)n2n1` (centres unmarked) [Example 3, N-{7-[1-(4-tert-Butylphenoxy)ethyl]-[1,2,4]triazolo[1,5-a]pyrimidin-2-yl}-N′-isopropyloxy-formamidine] displayed a Kd of over 3000 nM.

Regarding `CCCON=CNc1nc2nccc(C(C)Oc3ccc(C(C)(C)C)cc3)n2n1` (centres unmarked) [Example 2, N-{7-[1-(4-tert-Butylphenoxy)ethyl]-[1,2,4]triazolo[1,5-a]pyrimidin-2-yl}-N′-propyloxy-formamidine], the equilibrium dissociation constant (Kd) is under 100 nM.

`CON=CNc1nc2nccc(COc3ccc(C(C)(C)C)cc3)n2n1` [Example 4, N-[7-(4-tert-Butylphenoxymethyl)-[1,2,4]triazolo[1,5-a]pyrimidin-2-yl]-N′-methoxy-formamidine] registered a Kd of over 3000 nM.
